Patent US10336691B2, “Pesticidally active oxime and hydrazone derivatives” (Syngenta Participations AG, priority 2015, dated 2019)
Values belong to the compound of their own block, whether it stands above or below them.

Key:
Plutella xylostella = Plutella xylostella (diamond back moth) artificial diet test, L2 larvae; format: in vivo; details: 120 h, application rate of 200 ppm, 5 days after infestation, in comparison to untreated samples, read-out: effect in at least one of the two categories (mortality or growth inhibition)
Description: Plutella xylostella (Diamond Back Moth)
(§1) 24-well microtiter plates with artificial diet were treated with aqueous test solutions prepared from 10,000 ppm DMSO stock solutions by pipetting. After drying, the plates were infested with L2 larvae (10 to 15 per well). The samples were assessed for mortality and growth inhibition in comparison to untreated samples 5 days after infestation.

Diabrotica balteata = Diabrotica balteata (corn root worm) maize sprout spray test, L2 larvae; format: in vivo; details: 96 h, application rate of 200 ppm, 4 days after infestation, in comparison to untreated samples, read-out: effect in at least one of the two categories (mortality or growth inhibition)
Description: Diabrotica balteata (Corn Root Worm)
as §1, with “Maize sprouts, placed on an agar layer in 24-well” for “24-well”, “plates” for “plates with artificial diet”, “spraying.” for “pipetting.”, “(6” for “(10”, “10” for “15”, “4” for “5”

Spodoptera littoralis = Spodoptera littoralis (Egyptian cotton leaf worm) cotton leaf disc spray test, L1 larvae; format: in vivo; details: foliar, 72 h, application rate of 200 ppm, 3 days after infestation, in comparison to untreated samples, read-out: control (at least one of mortality, anti-feedant effect, and growth inhibition)
Description: Spodoptera littoralis (Egyptian Cotton Leaf Worm)
Cotton leaf discs were placed on agar in 24-well microtiter plates and sprayed with aqueous test solutions prepared from 10,000 ppm DMSO stock solutions. After drying, the leaf discs were infested with five L1 larvae. The samples were assessed for mortality, anti-feedant effect, and growth inhibition in comparison to untreated samples 3 days after infestation. Control of Spodoptera littoralis by a test sample is when at least one of mortality, anti-feedant effect, and growth inhibition is higher than the untreated sample.

- melting point: 215 to 224 °C
SMILES: C/C(=N\Nc1ccc(/C=N/NC(=O)Nc2c(C)cccc2C)cc1)c1ccccc1OC(F)(F)F

SMILES: C/C(=N\Nc1ccc(/C=N/NC(=S)Nc2ccccc2C(C)C)cc1)c1ccc(C(F)(F)F)cc1 [Compound 20, 1-(2-isopropylphenyl)-3-[(E)-[4-[(2E)-2-[1-[4-(trifluoromethyl)phenyl]ethylidene] hydrazino]phenyl]methyleneamino] thiourea]
- percent effect (mortality or growth inhibition) at 200 ppm (Plutella xylostella): ≥ 80%
- percent effect (mortality or growth inhibition) at 200 ppm (Diabrotica balteata): ≥ 80%
- mortality at 200 ppm (Spodoptera littoralis): ≥ 80%

SMILES: C/C(=N\Nc1ccc(/C=N/NC(=O)Nc2c(C)cccc2C)cc1)c1ccc(C(F)(F)F)cc1 [Compound 21, 1-(2,6-dimethylphenyl)-3-[(E)-[4-[(2E)-2-[1-[4-(trifluoromethyl)phenyl]ethylidene] hydrazino]phenyl]methyleneamino] urea]
- percent effect (mortality or growth inhibition) at 200 ppm (Plutella xylostella): ≥ 80%
- percent effect (mortality or growth inhibition) at 200 ppm (Diabrotica balteata): ≥ 80%
- mortality at 200 ppm (Spodoptera littoralis): ≥ 80%

SMILES: C/C(=N\Nc1ccc(/C=N/NC(=S)Nc2c(C)cccc2C)cc1)c1ccc(C(F)(F)F)cc1 [Compound 22, 1-(2,6-dimethylphenyl)-3-[(E)-[4-[(2E)-2-[1-[4-(trifluoromethyl)phenyl]ethylidene] hydrazino]phenyl]methyleneamino] thiourea]
- percent effect (mortality or growth inhibition) at 200 ppm (Plutella xylostella): ≥ 80%
- percent effect (mortality or growth inhibition) at 200 ppm (Diabrotica balteata): ≥ 80%
- mortality at 200 ppm (Spodoptera littoralis): ≥ 80%

SMILES: CC/C(=N\Nc1ccc(/C=N/NC(=S)Nc2ccccc2C(C)C)cc1)c1ccc(C(F)(F)F)cc1 [Compound 26, 1-(2-isopropylphenyl)-3-[(E)-[4-[(2E)-2-[1-[4-(trifluoromethyl)phenyl]propylidene] hydrazino]phenyl]methyleneamino] thiourea]
- percent effect (mortality or growth inhibition) at 200 ppm (Plutella xylostella): ≥ 80%
- percent effect (mortality or growth inhibition) at 200 ppm (Diabrotica balteata): ≥ 80%
- mortality at 200 ppm (Spodoptera littoralis): ≥ 80%

SMILES: CC/C(=N\Nc1ccc(/C=N/NC(=O)Nc2c(C)cccc2C)cc1)c1ccc(C(F)(F)F)cc1 [Compound 27, 1-(2,6-dimethylphenyl)-3-[(E)-[4-[(2E)-2-[1-[4-(trifluoromethyl)phenyl]propylidene] hydrazino]phenyl]methyleneamino] urea]
- percent effect (mortality or growth inhibition) at 200 ppm (Plutella xylostella): ≥ 80%
- percent effect (mortality or growth inhibition) at 200 ppm (Diabrotica balteata): ≥ 80%
- mortality at 200 ppm (Spodoptera littoralis): ≥ 80%

SMILES: CC/C(=N\Nc1ccc(/C=N/NC(=S)Nc2c(C)cccc2C)cc1)c1ccc(C(F)(F)F)cc1 [Compound 28, 1-(2,6-dimethylphenyl)-3-[(E)-[4-[(2E)-2-[1-[4-(trifluoromethyl)phenyl]propylidene] hydrazino]phenyl]methyleneamino] thiourea]
- percent effect (mortality or growth inhibition) at 200 ppm (Plutella xylostella): ≥ 80%
- percent effect (mortality or growth inhibition) at 200 ppm (Diabrotica balteata): ≥ 80%
- mortality at 200 ppm (Spodoptera littoralis): ≥ 80%
